Experimental data taken from US5331094A, “Purified active somatostatin receptor” (American Cyanamid Company, priority 1992, dated 1994).
Bridge positions count the residues as written; N and C are the ends. Square brackets hold non-standard residues; d marks the D form. Peptide text beside a SMILES is read from it. * marks the point of attachment. Biotin = O=C1N[C@H]2[C@H](CS[C@H]2CCCCC(=O)*)N1; Tyr(3-I) = N[C@@H](Cc1ccc(O)c(I)c1)C(=O)O; Ahx = NCCCCCC(=O)O

Experiments:
Design in all cases: species or system rat
SRIF receptor [1] = assay: Competitive radioligand binding assay with [125I]Tyr11-S14 and GH4 C1 membranes; conditions: for IC50: vs [125I]Tyr11-S14, 20 ug GH4 C1 membrane protein, 100,000 cpm radioligand (FIG. 1B)
Method: (§1) 1. Standard Binding Assays--Binding assays are done in a binding buffer containing 50 mM HEPES (pH 7.4), 0.5% BSA and 5 mM MgCl2. The standard assay for [^125 I]SRIF analog binding to GH4 C1 membranes, done in 96 well microtiter plates (Dynataech Immulon II Removawell plates), is carried out as follows: 1. Radioligand is diluted in binding buffer+ PMSF/Baci to the desired cpm per vol. of 50 μl and then 50 μl aliquots are added to the wells. For non-specific binding samples, 5 μl of 40 μM cold S14 is also added per well. 2. Binding is initiated by adding 150 μl per well of membrane diluted to the desired concentration (10-30 ug membrane protein/well) in binding buffer+ PMSF/Baci. Plates are then covered with Linbro mylar plate sealers (Flow Labs) and placed on a Dynatech Microshaker II and binding is allowed to proceed at room temperature for 1-2 hours. Binding is stopped by centrifuging the plate for 15 minutes at 2,000×g. The supernatants are dumped off and membrane pellets washed once by addition of 200 μl of ice cold binding buffer, brief shaking and recentrifugation. Finally the individual wells are placed in 12×75 mm tubes and counted in an LKB Gammamaster counter (78% efficiency). Specific binding by this method is identical to that measured when free ligand is removed by rapid (3-5 seconds) filtration and washing on polyethyleneimine-coated glass fiber filters.
2. competitive radioligand binding assays with a concentration range of cold ligand vs. [^125 I]SRIF are carried out as described above with one modification. All dilutions of SRIF analogs being assayed are made in 40×PMSF/Baci to a concentration 40× the final concentration in the assay. This gives very consistent results with a wide variety of SRIF structural analogs over a wide range of dilutions. 5 ul samples of peptide are then added per microtiter well. Membranes and radioligand are diluted out in binding buffer without protease inhibitors. Radioligand is added and mixed with cold peptides and then binding is initiated by addition of membranes.
These assays are carried out as described in "Methods: Receptor Binding Methods, 2". […] Therefore the Bio-6C-S14, Bio-12C-S14 and Bio-S28analogs are preferably synthesized. In Bio-S28, amino acid residues 1-14 are considered a spacer since residues 15-28 are equivalent to an S14 analog, having all the necessary structure for high affinity binding. The three spacer-containing biotinyl SRIFs show receptor binding activity similar to that of S14 (FIG. 1B; assays contained 20 ug of GH 4 C1 membrane protein and 100,000 cpm of radioligand). The IC50 s and relative potencies are S14 (0.2 nM)>Bio-S28(0.3 nM) >Bio-6C-S14 (2 nM)>Bio-12C-S14 (2 nM).

SRIF receptor [2] = assay: Lectin affinity binding (WGA-agarose) of solubilized receptor:[125I]Tyr11-S14 complex; conditions: for A/B, GFB/PEI filters: Recovery of soluble R:L complex
Method: 4. Larger scale binding assays to obtain membrane pellets for studies on solubilization of receptor: ligand complex and for receptor purification are also carried out. These are identical to the standard assays except that: (a) Binding is carried out in polypropylene tubes in volumes from 1-250 ml, (b) Concentration of membrane protein is always 0.5 mg/ml, (c) For receptor purification, BSA concentration in the binding buffer is reduced to 0.25% and the wash step is done with binding buffer without BSA. This is to reduce BSA contamination of the purified receptor.
H. Assay of Solubilized Receptors--After binding of [^125 I]SRIF analogs and solubilization of the membranes with detergent, the intact R:L complex could be assayed by four different methods (all carried out on ice or in a cold room at 4°-10° C.): (1) Column chromatography (Knuhtsen et al., Biochem. J. 254:641-647, 1988). Sephadex G-50 columns (8×250 mm) are equilibrated with solubilization buffer containing detergent at the concentration used to solubilize membranes and 1 mg/ml bovine serum albumin. 0.2-0.5 ml samples of solubilized membranes are applied to the columns and eluted at a flow rate of about 0.7 ml/minute. 0.18 ml samples are collected. Radioactivity is determined in a gamma counter as described under "Receptor Binding Methods". Void volumes of the columns are determined by the elution volume of blue dextran. Radioactivity eluting in the void volume (>50,000 MW) was considered bound to protein. Radioactivity eluting later, at the same volume as free [^125 I]SRIF, is considered non-bound. (2) Polyethyleneglycol precipitation (Cuatrecasas, PNAS USA 69:318-322, 1972) For a 100 ul sample of solubilized membranes in a 12×75 mm polypropylene tube, 0.5 ml of 1% (w/v) bovine gamma globulin (Sigma) in 0.1M sodium phosphate buffer is added, followed by 0.5 ml of 25% (w/v) polyethyleneglycol (Sigma) and mixing. The mixture is held on ice for 15 minutes. Then 3 ml of 0.1M sodium phosphate (pH 7.4) is added per sample and the samples are rapidly (1-3 seconds) filtered over Whatman GF/B glass fiber filters and washed with 4 ml of the phosphate buffer. PEG precipitated SRIF receptor:[^125 I]SRIF complex is determined by gamma counting of the filters. (3) GFB/PEI filter binding (Bruns et al., Analytical Biochem. 132:74-81, 1983). Whatman GF/B glass fiber filters are soaked in 0.3% polyethyleneimine (PEI, Sigma) for 3 hours. 25-100 ul samples of solubilized membranes are replaced in 12×75 mm polypropylene tubes. Then 4 ml of solubilization buffer (without detergent) is added per sample and the samples are immediately filtered through the GFB/PEI filters (1-3 seconds) and washed with 4 ml of solubilization buffer. CPM of SRIF receptor:[^125 I]SRIF complex adsorbed to filters are determined by gamma counting. (4) Charcoal/Dextran (Paul and Said, Peptides 7[Suppl. 1]:147-149, 1986). 0.5 gm of Dextran T70 (Pharmacia) is dissolved in 1 liter of water and then 5 gm of activated charcoal (Norit A, alkaline; Fisher Scientific) is added. The suspension is stirred for 10 minutes at room temperature and then stored at 4° C. until use. To measure R:L complex, 4 parts by volume of charcoal/dextran suspension are added to 1 part by volume of solubilized membrane. The samples are mixed and held on ice for 2 minutes and then centrifuged for 2 minutes at 11,000×g in a Beckman microfuge. Free radioligand is adsorbed charcoal/dextran and is discarded with the pellet. SRIF receptor:[^125 I]SRIF complex remain in the supernatant and is determined by gamma counting.
A. Solubilized Receptor: [^125 I]Tyr11-S14 Complex-Binding of [^125 I][…] to GH4 C1 membranes is carried out as in "Receptor Binding Methods. 4". Binding incubations contain 0.5 mg/ml membrane protein and 6×10^6 cpm/ml of [^125 I]Tyr11-S14. Solubilization of membranes in 0.15% deoxycholate:lysolecithin is also as previous described. […]

SRIF receptor [3] = assay: Scatchard analysis of binding of [125I]-labelled SRIF analogs to GH4 C1 membranes; conditions: GH4 C1 membranes (FIG. 2), read-out: dissociation constant (KD)
Method: as §1
Because Bio-C6-S14, Bio-C12-S14 and Bio-S28 all contain tyrosine residues, it is possible to prepare their [^125 I] labelled analogs and carry out Scatchard analyses of their binding affinities relative to [^125 I]Tyr11-S14 (FIG. 2). As shown in the figure, the [^125 I]-labelled peptides fall in the same order of potency as their non-labelled forms. The dissociation constants (KDs) and relative binding affinities are [^125 I]Tyr11-S14 (0.1 nM)>[^125 I]Bio-S28 (0.2 nM)>[^125I]Bio-6C-S14 (0.3 nM)>[^125 I]Bio-12C-S14 (0.4 nM).

[4] = Sample: 100,000 x g supernatant
[5] = Sample: Eluted from WGA-agarose
[6] = Sample: Non-bound to WGA-agarose

C[C@H](NC(=O)CCCCCNC(=O)CCCC[C@@H]1SC[C@@H]2NC(=O)N[C@@H]21)C(=O)NCC(=O)N[C@H]1CSSC[C@@H](C(=O)O)NC(=O)[C@H](CO)NC(=O)[C@H]([C@@H](C)O)NC(=O)[C@H](Cc2ccc(O)cc2)NC(=O)[C@H]([C@@H](C)O)NC(=O)[C@H](CCCCN)NC(=O)[C@H](Cc2c[nH]c3ccccc23)NC(=O)[C@H](Cc2ccccc2)NC(=O)[C@H](Cc2ccccc2)NC(=O)[C@H](CC(N)=O)NC(=O)[C@H](CCCCN)NC1=O [Bio-6C-S14, Biotinyl-[NH--(CH2)5 --CO]--NH-(Tyr11)SRIF14] ({Biotin-Ahx}-AGCKNFFWKTYTSC-OH; disulfide 3-14)
IC50 (SRIF receptor [1]): 2 nM

C[C@H](NC(=O)CCCCCNC(=O)CCCCCNC(=O)CCCC[C@@H]1SC[C@@H]2NC(=O)N[C@@H]21)C(=O)NCC(=O)N[C@H]1CSSC[C@@H](C(=O)O)NC(=O)[C@H](CO)NC(=O)[C@H]([C@@H](C)O)NC(=O)[C@H](Cc2ccc(O)cc2)NC(=O)[C@H]([C@@H](C)O)NC(=O)[C@H](CCCCN)NC(=O)[C@H](Cc2c[nH]c3ccccc23)NC(=O)[C@H](Cc2ccccc2)NC(=O)[C@H](Cc2ccccc2)NC(=O)[C@H](CC(N)=O)NC(=O)[C@H](CCCCN)NC1=O [Bio-12C-S14, Biotinyl-[NH-(CH2)5 -CO]2 -NH-(Tyr11)SRIF14] ({Biotin-Ahx-Ahx}-AGCKNFFWKTYTSC-OH; disulfide 3-14 (inferred); C-terminus assumed)
IC50 (SRIF receptor [1]): 2 nM

CC(C)C[C@H](NC(=O)[C@H](C)NC(=O)[C@@H]1CCCN1C(=O)[C@H](CC(N)=O)NC(=O)[C@H](CO)NC(=O)[C@H](CC(N)=O)NC(=O)[C@H](C)NC(=O)[C@H](CO)NC(=O)CCCC[C@@H]1SC[C@@H]2NC(=O)N[C@@H]21)C(=O)N[C@@H](C)C(=O)N1CCC[C@H]1C(=O)N[C@@H](CCCNC(=N)N)C(=O)N[C@@H](CCC(=O)O)C(=O)N[C@@H](CCCNC(=N)N)C(=O)N[C@@H](CCCCN)C(=O)N[C@@H](C)C(=O)NCC(=O)N[C@H]1CSSC[C@@H](C(=O)O)NC(=O)[C@H](CO)NC(=O)[C@H]([C@@H](C)O)NC(=O)[C@H](Cc2ccc(O)cc2)NC(=O)[C@H]([C@@H](C)O)NC(=O)[C@H](CCCCN)NC(=O)[C@@H](Cc2c[nH]c3ccccc23)NC(=O)[C@H](Cc2ccccc2)NC(=O)[C@H](Cc2ccccc2)NC(=O)[C@H](CC(N)=O)NC(=O)[C@H](CCCCN)NC1=O [Bio-S28, Biotinyl-NH-(Leu8, D-Trp22, Tyr25)SRIF28] (Biotin-SANSNPALAPRERKAGCKNFF[dW]KTYTSC-OH; disulfide 17-28 (inferred); C-terminus assumed)
IC50 (SRIF receptor [1]): 0.3 nM

C[C@H](N)C(=O)NCC(=O)N[C@H]1CSSC[C@@H](C(=O)O)NC(=O)[C@H](CO)NC(=O)[C@H]([C@@H](C)O)NC(=O)[C@H](Cc2ccccc2)NC(=O)[C@H]([C@@H](C)O)NC(=O)[C@H](CCCCN)NC(=O)[C@H](Cc2c[nH]c3ccccc23)NC(=O)[C@H](Cc2ccccc2)NC(=O)[C@H](Cc2ccccc2)NC(=O)[C@H](CC(N)=O)NC(=O)[C@H](CCCCN)NC1=O [S14, reference compound]
IC50 (SRIF receptor [1]): 0.2 nM

C[C@H](N)C(=O)NCC(=O)N[C@H]1CSSC[C@@H](C(=O)O)NC(=O)[C@H](CO)NC(=O)[C@H]([C@@H](C)O)NC(=O)[C@H](Cc2ccc(O)c(I)c2)NC(=O)[C@H]([C@@H](C)O)NC(=O)[C@H](CCCCN)NC(=O)[C@H](Cc2c[nH]c3ccccc23)NC(=O)[C@H](Cc2ccccc2)NC(=O)[C@H](Cc2ccccc2)NC(=O)[C@H](CC(N)=O)NC(=O)[C@H](CCCCN)NC1=O [[^125 I]Tyr11-S14] (H-AGCKNFFWKT[Tyr(3-I)]TSC-OH; disulfide 3-14 (inferred); N-terminus and C-terminus assumed)
A/B, GFB/PEI filters (SRIF receptor [2]; 100,000 x g supernatant): 11.3 | A/B, GFB/PEI filters (SRIF receptor [2]; Eluted from WGA-agarose): 33.7 | A/B, GFB/PEI filters (SRIF receptor [2]; Non-bound to WGA-agarose): 2.9 | A/B (total/non-specific) (SRIF receptor [2]; [4]): 8.2 | CPM of [125I]Tyr11-S14, A. Total (SRIF receptor [2]; [4]): 104,420 CPM | CPM of [125I]Tyr11-S14, B. Non-Specific (SRIF receptor [2]; [4]): 12,756 CPM | A/B (total/non-specific) (SRIF receptor [2]; Sample: Bound to WGA-agarose): 22.1 | CPM of [125I]Tyr11-S14, A. Total (SRIF receptor [2]; Sample: Bound to WGA-agarose): 69,889 CPM | CPM of [125I]Tyr11-S14, B. Non-Specific (SRIF receptor [2]; Sample: Bound to WGA-agarose): 3,157 CPM | A/B (total/non-specific) (SRIF receptor [2]; [5]): 23.0 | CPM of [125I]Tyr11-S14, A. Total (SRIF receptor [2]; [5]): 58,925 CPM | CPM of [125I]Tyr11-S14, B. Non-Specific (SRIF receptor [2]; [5]): 2,524 CPM | A/B (total/non-specific) (SRIF receptor [2]; Sample: Membranes): 5.3 | CPM of [125I]Tyr11-S14, A. Total (SRIF receptor [2]; Sample: Membranes): 151,848 CPM | CPM of [125I]Tyr11-S14, B. Non-Specific (SRIF receptor [2]; Sample: Membranes): 28,812 CPM | A/B (total/non-specific) (SRIF receptor [2]; [6]): 2.4 | CPM of [125I]Tyr11-S14, A. Total (SRIF receptor [2]; [6]): 23,112 CPM | CPM of [125I]Tyr11-S14, B. Non-Specific (SRIF receptor [2]; [6]): 9,624 CPM | Kd (SRIF receptor [3]): 0.1 nM

Biotinyl-NH-SRIF14 [Biotinyl-NH-S14]
potency relative to S14 in the competitive binding assay (SRIF receptor [1]; FIG. 1A, 40 ug GH4 C1 membrane protein, 85,000 cpm radioligand): about 1.5%
